Like-named read-outs stand apart in the source and are kept apart here.
Tests used:
Mikan = settings: dilution ratio 100 (10 g/L); 6 days after treatment
[1] = system: harvested fruit of grape (variety: Barikan)
Protocol: The fruit of grape was maintained in an air-conditioned greenhouse (temperature: 25° C.), and measured for the mass over time. The sugar content of the fruit was measured before the application and 8 days after the application with a sugar content meter. Next, on the assumption that the change in the mass of the fruit was entirely due to the change in water content, calculated values of the amount of decrease in mass and the sugar content on the date (June 2) of the application were determined […] by using the following calculation formula. (Calculated as follows: the sugar content (%) calculated value))=the sugar content (%) before application×the mass (g) on the date of application/the mass (g) on the date of measurement))

[2] = system: clusters of grape (variety: Crimson); test: Estimated transpiration ratio of grape clusters (Example 9); assay type: in vivo; settings: 10 g/L; 8 days after treatment
Tomato = settings: dilution ratio 100 (10 g/L); 6 days after treatment
[3] = system: fruit of grape (variety: Red Globe)
Protocol: The mass of fruit of grape (variety: Red Globe) purchased on the market was measured. Then, the prepared agents for increasing a sugar content in a fruit were applied by spraying to the fruit of grape, which was then allowed to stand in an air-conditioned greenhouse (temperature: 25° C.). With the mass of the grape on the date of application being 100 g, the mass of the grape after the application was measured over time (date of application: May 16, 2011; dates of test: May 19, May 23, May 27, May 30, and Jun. 2, 2011). Next, on the assumption that the change in mass of the fruit was entirely due to the change in water content, the calculated value of the sugar content was determined from the amount of decrease in mass and the sugar content on the date […] of the application (calculated as follows: “the sugar content (calculated value)=the sugar content (%) on the date of application×the mass (g) on the date of application/the mass (g) on the date of measurement”). In addition, as a control, the mass of untreated grape was measured in the same manner. The results are shown in Tables 7 and 8 and FIGS. 12 to 14.

[4] = 10 g/L, 25° C., mass 100 g on date of application
[5] = 10 g/L, calculated from decrease in mass

O=P([O-])([O-])OP(=O)([O-])[O-].[K+].[K+].[K+].[K+] [Tetrapotassium pyrophosphate, tetrapotassium pyrophosphate]
Ratio (%) of decrease in body weight of fruit (Mikan): 10.4%
decrease of mass of fruit in 8 days (June 2 to June 10) ([1]; 10 g/L): 19.1%
Sugar content (%) 8 days later, actually measured value ([1]; 10 g/L, 25° C.): 21.5%
Mass (g) 6 days later (Jun. 8) [1, 4]: 85.7 g
Mass (g) 8 days later (Jun. 10) [1, 4]: 80.9 g
Sugar content (%) 8 days later, calculated value [1, 5]: 21.6%
Sugar content (%) on date of application (Jun. 2) ([1]; before application): 17.5%
Estimated transpiration ratio (%) Average [2]: 32%
Estimated transpiration ratio (%) First [2]: 32%
Ratio (%) of decrease in body weight of fruit (Tomato): 13.8%
ratio of decrease in mass per day (comparison) ([3]; 10 g/L): highest ratio of decrease in mass per day
Sugar content (%) May 16 ([3]; 10 g/L group, date of application): 16.6%
mass of fruit as % of the mass on the date of application ([3]; 10 g/L, 17 days later): 57.3%
mass (g) of the fruit ([3]; 10 g/L, Jun. 2): 57.3 g
mass (g) of the fruit ([3]; 10 g/L, May 19, 100 g on May 16): 86.7 g
mass (g) of the fruit ([3]; 10 g/L, May 23): 78.9 g
mass (g) of the fruit ([3]; 10 g/L, May 27): 69.8 g
mass (g) of the fruit ([3]; 10 g/L, May 30): 63.8 g
Sugar content (%) Jun. 2 Calculated value [3, 5]: 29%
